Where “and” joins values, the source holds several entries; their conditions need not be identical. Identical values can stand only once.
How the values were obtained:
[1] = system: human MCF-7 cells; assay: Visually scored toxicity of NAC-MTN / NAC-DOX at fixed loading (Example 3); assay type: cell-based; details: 5.1% drug loading, 16 hour incubation
Description: Toxicity of NAC-MTN or NAC-DOX, at 50, 16.9, 5.6, and 1.9 ug/ml final drug concentration and 5.1 % drug loading in human MCF-7 cells. Sample A: 15 mg of HSDNA (EX031804A) was combined with 0.76 mg MTN(mw 517.4) or (sample B) 0.76 mg DOX (mw 579.99) to give 152 ug/ml final drug and 5.1% loading in 5 ml final vol. Samples C, D were MTN, or DOX only controls at equivalent final [drug] without HSDNA. Sample E was HSDNA, no drug and sample F was H2O only. MCF-7 cells were trypsinized and plated out previously. Triplicate samples were diluted 0.1 ml in 0.2 ml 1× media to give 3× fold serial dilution in 0.2 ml final. After 16 hour incubation the cells were visually inspected for signs of toxicity. Toxicity was scored as the following: 50%=one half all cells rounded, un-adhered or crenated.

[2] = after 5 days; cited from earlier work
[3] = Stability of NAC-DOX complex in hank's buffered saline (HBSS) at pH 7; assay type: physicochemical
Description: The NAC-DOX complex was tested for stability in hank's buffered saline (HBSS) at pH 7.

[4] = system: MCF7 cells; assay: Drug loading vs toxicity at fixed [drug], MTT viability assay (Example 4); assay type: cell-based, human; details: Drug only, without carrier; 0.103 mM DOX; 72 hours
Description: FIG. 1. […] NAC-MTN or NAC-DOX were prepared at different weight:weight % of drug:nucleic acid and incubated in cells. For each sample and corresponding % loading, the total drug was held constant at 0.058 mM MTN or 0.1 mM DOX. After incubation in cells, cell viability was assayed via mitochondrial dehydrogenase activity against 3-[4,5-dimethylthiazol-2-yl]-2,5-diphenyl tetrazolium bromide (MTT) and reported as % toxicity relative to untreated cells.
Mitoxantrone (MTN, Sigma Aldrich) and Doxorubicin HCl (DOX) were diluted in HBSS to 1 mg/ml final. DNA, from degraded herring sperm DNA <40 bp (HSDNA, Sigma Aldrich), was prepared in water at 10 mg/ml. The drug was diluted in water or HBSS first, followed by addition of the DNA, in order to prevent precipitation. Precipitation of drug was especially a concern at 40% loading of MTN, which is the loading limit for HSDNA (degraded) and so the DNA is added slowly to the diluted MTN (the reverse addition leads to precipitation). All NAC-MTN formulation stocks were prepared at 0.15 mg/ml final MTN, and different concentration of DNA in order to give 15, 25, and 35.7% final drug loading w/w % of MTN/DNA in 0.5 ml final volume. All NAC-DOX formulations were prepared at 0.3 mg/ml final DOX, and either 5, 10, or 15% loaded drug weight/weight % of DOX/DNA in 0.5 ml final volume. […]

[5] = Dipyridamole precipitation assay, supernatant absorbance A410 (Example 6); assay type: physicochemical
Description: Similar results were obtained for dipyridamole (DPA). Dipyridamole is a coronary vasodilator and functions primarily to reduce platelet adhesion and aggregation. […] Dipyridamole for intravenous injection is given as a sodium chloride or dextrose injection with 5 mg of DPA, 50 mg PEG600, 2 mg tartaric acid, and water at pH 2.7. Dipyridamole is readily soluble in acidic solution, however at higher pH it can precipitate. […] Furthermore, the nucleic acid targeting of dipyridamole can provide unexpected therapeutic benefits by enhancing its accumulation in specific areas of the body.
Dipyridamole (DPA, m.w. 504.6) was prepared as 10.27 mM […] solution in water acidified with HCl. DNA was from HSDNA 428A) 10 mg/ml in H2O prev. heated to 80C.
Prepared samples 1-3 by combining 25 ul of DPA and 0.2 ml DNA to give a turbid solution. Added 7 ul of 1M HCl to clarify, followed by 0.1 ml of 1M potassium phosphate buffer (KP) pH7. Repeated for samples 4-6 and replace DNA with water. […] Read absorbance of 0.3 ml supernatant at A410. Higher values corresponded to more drug solubilized.

[6] = Paclitaxel solubilization by NAC, turbidity OD410 (Example 8); assay type: physicochemical; details: formulation with a nucleic acid
Description: Solubility enhancement of paclitaxel by NAC. Aqueous paclitaxel solutions were prepared with or without DNA, sonicated, stored at room temperature for several hours, and then centrifuged. The pellets were resuspended in 50% ethanol and the precipitated paclitaxel was quantified using a standard absorbance curve at 230 nm. The total percentage of solubilized paclitaxel was calculated using %=100× (1-assy mM)/expected mM.
Materials: Paclitaxel 10.0 mg/ml (0.0118M, m.w. 853.92) in 80% ETOH. HSDNA (herring sperm degraded DNA 428A, Sigma-Aldrich) 10 mg/ml pH7 HSGDNA (genomic, Promega mw range 100 bp-3000 bp) 10 mg/ml. […] 1M potassium phosphate buffer pH5.
Aqueous paclitaxel solutions were prepared by combining 10 ul (0.01 ml) of paclitaxel stock (11.8 mM) with 2.0 ml H2O containing water only, HSGDNA, HSDNA, RNA, or HSDNA/pPEGPEI2K as indicated in the table. Samples were sonicated 3 min. with Branson Sonifier 450 @40% duty, at #3 output level. In 10 mM potassium phosphate pH5.
Let solutions stand 30 min, and read turbidity of 0.3 ml at A410 on the Synergy HT1. Samples were 10 min @2500 rpm on Beckman Allegra21R. The pellet was resuspended in 1.5 ml of 50% ETOH and OD230 nm was taken of a 0.3 ml sample in a Falcon UV clear plate on Synergy HT1. Prepared paclitaxel standard curve, 10 ul of 9.81 mM in 1 ml 50% ETOH was diluted 2×, serially in 5 vials at 0.5 ml final vol. […]

[7] = physiological conditions; cited from earlier work

| Compound | Toxicity (visual score) ([1]; 5.6 ug/ml final drug) [%] | Toxicity (visual score) ([1]; 17 ug/ml final drug) | Toxicity (visual score) ([1]; 50 ug/ml final drug) [%] | Toxicity (visual score) ([1]; 1 .9 ug/ml final drug) [%] | also measured |
| --- | --- | --- | --- | --- | --- |
| O=C1c2c(O)ccc(O)c2C(=O)c2c(NCCNCCO)ccc(NCCNCCO)c21 [C, mitoxantrone] | 90 | 100% | 100 | 20 |  |
| COc1cccc2c1C(=O)c1c(O)c3c(c(O)c1C2=O)C[C@@](O)(C(=O)CO)C[C@@H]3O[C@H]1C[C@H](N)[C@H](O)[C@H](C)O1 [DOX, doxorubicin] |  | 80-90% |  |  | administered drug recovered in urine [2]: 4-5%; stability in hank's buffered saline (HBSS) at pH 7 [3]: became unstable at pH 7; % Tox [4]: 67% |
| OCCN(CCO)c1nc(N2CCCCC2)c2nc(N(CCO)CCO)nc(N3CCCCC3)c2n1 [DPA, dipyridamole] |  |  |  |  | stability against precipitation ([5]; formulated with the nucleic acid carrier, aqueous solutions at pH 7): stabilized dipyridamole against precipitation; A410 of supernatant ([5]; potassium phosphate buffer pH7, 16 hours, higher = more drug solubilized, replicate samples): 0.388 and 0.396 and 0.401 |
| COc1cccc2c1C(=O)c1c(O)c3c(c(O)c1C2=O)C[C@@](O)(C(=O)CO)C[C@@H]3O[C@H]1C[C@H](N)[C@H](O)[C@H](C)O1 [Sample D, doxorubicin] | 20 | 80% | 100 | 10 |  |
| CC(=O)O[C@H]1C(=O)[C@@]2(C)[C@H]([C@H](OC(=O)c3ccccc3)[C@]3(O)C[C@H](OC(=O)[C@H](O)[C@@H](NC(=O)c4ccccc4)c4ccccc4)C(C)=C1C3(C)C)[C@]1(OC(C)=O)CO[C@@H]1C[C@@H]2O [paclitaxel] |  |  |  |  | enhancement of solubility of paclitaxel compared with water alone [6]: ≤ 200% |
| Mylotarg: mAB-calcheamicin conjugate with hydrazone linker |  |  |  |  | drug existing in free form [7]: approximately 50% |
